Tests used:
Assay in all cases: drug sensitivity score (DSS) from 5-point dose-response viability curve (DSS (area-under-curve based score)); higher = more sensitive (stronger growth inhibition or killing); extreme values may be limits of the assay
Conditions in all cases: exposure time: 72 h; concentration range: 5 concentrations over 10,000-fold range
Kuramochi = tested on: Kuramochi
In short: (§1)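 Drugs in DMSO or water were acoustically dispensed (Echo 550) into 384-well plates at five concentrations across a 10,000-fold range. Ovarian cancer and normal ovarian cells (1,500 per well) were then added, incubated for 3 days at 37°C with 5% CO2, and read for viability by CellTiter-Glo luminescence on a PHERAstar FS. From these readings, Breeze software derived a drug sensitivity score per cell line and drug, with higher values meaning more sensitive and zero meaning no response.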

COV362 = tested on: COV362
In short: as §1

HOSE1C = tested on: HOSE1C
In short: as §1

JHOS2 = tested on: JHOS2
In short: as §1

COV318 = tested on: COV318
In short: as §1

OVCAR8 = tested on: OVCAR8
In short: as §1

OVCAR4 = tested on: OVCAR4
In short: as §1

Ovsaho = tested on: Ovsaho
In short: as §1

OV90 = tested on: OV90
In short: as §1

HOSE2C = tested on: HOSE2C
In short: as §1

CAOV3 = tested on: CAOV3
In short: as §1

OVCAR5 = tested on: OVCAR5
In short: as §1

SMILES | drug sensitivity score (Kuramochi) | drug sensitivity score (COV362) | drug sensitivity score (HOSE1C) | drug sensitivity score (JHOS2) | drug sensitivity score (COV318) | drug sensitivity score (OVCAR8) | drug sensitivity score (OVCAR4) | drug sensitivity score (Ovsaho) | drug sensitivity score (OV90) | drug sensitivity score (HOSE2C) | drug sensitivity score (CAOV3) | drug sensitivity score (OVCAR5)
COc1cccc2c1C(=O)c1c(O)c3c(c(O)c1C2=O)C[C@@](O)(/C(CO)=N/NC(=O)CCCCCN1C(=O)C=CC1=O)C[C@@H]3O[C@H]1C[C@H](N)[C@H](O)[C@H](C)O1 [Aldoxorubicin] | 5.8 | 2.2 | 6.8 | 7.3 | 3.8 | 10 | 3.2 | 8.3 | 8.3 | 7.4 | 9.2 | 6.5
CCc1cc2c(cc1N1CCC(N3CCOCC3)CC1)C(C)(C)c1[nH]c3cc(C#N)ccc3c1C2=O [Alectinib] | 0 | 0 | 0 | 0 | 0 | 0.4 | 0 | 0 | 0 | 0 | 0 | 1.5
COc1cc(Nc2ncc3c(n2)-c2ccc(Cl)cc2C(c2c(F)cccc2OC)=NC3)ccc1C(=O)O [Alisertib] | 3.7 | 0 | 8.9 | 0.4 | 1.9 | 9.4 | 4.9 | 3.1 | 5.4 | 5.4 | 22.5 | 6.9
Oc1ncnc2[nH]ncc12 [Allopurinol] | 0 | 0 | 0 | 0 | 0 | 0 | 0.2 | 0 | 0.3 | 0 | 0 | 0
Cc1nc(NC(=O)N2CCC[C@H]2C(N)=O)sc1-c1ccnc(C(C)(C)C(F)(F)F)c1 [Alpelisib] | 2.4 | 0 | 2.2 | 0.6 | 0.5 | 0.3 | 0.9 | 0.4 | 1 | 3.2 | 3.7 | 4.2
O=C(Nc1cc(Oc2cc(F)c(NC(=O)C3(C(=O)Nc4ccc(F)cc4)CC3)cc2F)ccn1)C1CC1 [Altiratinib] | 4.3 | 3 | 4.2 | 4.3 | 1.7 | 6 | 3.3 | 3.6 | 0 | 3.4 | 2.7 | 6.6
CN1CC[C@H](c2c(O)cc(O)c3c(=O)cc(-c4ccccc4Cl)oc23)[C@H](O)C1 [Alvocidib] | 16 | 12.1 | 18.9 | 14 | 11.5 | 17.8 | 13.3 | 15.9 | 14.7 | 11.9 | 14.9 | 16.7
CCN(CC)CCNC(=O)c1c(C)[nH]c(/C=C2\C(=O)Nc3ccc(-c4csc(-c5ccccc5)n4)cc32)c1C [Amcasertib] | 0 | 0.5 | 8.8 | 0 | 8.8 | 0.6 | 0.8 | 0 | 0 | 5.2 | 0 | 1.3
CCC1(c2ccc(N)cc2)CCC(=O)NC1=O (configuration not stated) [Aminoglutethimide] | 0 | 0 | 0.2 | 0 | 0 | 0 | 0 | 0 | 0 | 0 | 0.2 | 0
COc1cc(NS(C)(=O)=O)ccc1Nc1c2ccccc2nc2ccccc12 [Amsacrine] | 0 | 1 | 13.7 | 3.8 | 0.6 | 10 | 0.2 | 5.5 | 7.3 | 16.7 | 13.7 | 6
S=C(NCc1ccc2c(c1)OCO2)N1CCN(c2ncnc3c2oc2ccccc23)CC1 [Amuvatinib] | 0.2 | 0 | 0 | 0 | 0.1 | 7.9 | 0.9 | 0.1 | 3.2 | 0 | 2.1 | 1.8
O=C1CN2Cc3c(ccc(Cl)c3Cl)N=C2N1 [Anagrelide] | 0 | 0 | 0 | 0 | 0 | 0 | 0 | 0 | 0 | 0 | 0 | 0
CC(C)(C#N)c1cc(Cn2cncn2)cc(C(C)(C)C#N)c1 [Anastrozole] | 0 | 0 | 0 | 0 | 0 | 0 | 0 | 0 | 0 | 0 | 0 | 0
CNC(=O)c1ccc(N2C(=S)N(c3cnc(C#N)c(C(F)(F)F)c3)C(=O)C23CCC3)cc1F [Apalutamide] | 0 | 0 | 0 | 0 | 0 | 0 | 0 | 0 | 0 | 0 | 0 | 0
N#CC1(c2ccc(NC(=O)c3cccnc3NCc3ccncc3)cc2)CCCC1 [Apatinib] | 0 | 0 | 0 | 0 | 0 | 0 | 0 | 0.3 | 0 | 0 | 0 | 0.5
O=C(Nc1ccc(OC(F)(F)Cl)cc1)c1cnc(N2CC[C@@H](O)C2)c(-c2cc[nH]n2)c1 [Asciminib] | 0.2 | 0 | 0 | 0 | 0 | 0 | 0.3 | 0 | 0 | 0 | 0 | 0.4

SMILES | drug sensitivity score (Kuramochi) | drug sensitivity score (COV362) | drug sensitivity score (HOSE1C) | drug sensitivity score (JHOS2) | drug sensitivity score (COV318) | drug sensitivity score (OVCAR8) | drug sensitivity score (OVCAR4) | drug sensitivity score (Ovsaho) | drug sensitivity score (OV90) | drug sensitivity score (HOSE2C) | drug sensitivity score (CAOV3) | drug sensitivity score (OVCAR5)
CC(C)c1c(C(=O)Nc2ccccc2)c(-c2ccccc2)c(-c2ccc(F)cc2)n1CC[C@@H](O)C[C@@H](O)CC(=O)O [Atorvastatin] | 1 | 0 | 10.1 | 0.3 | 0 | 3.6 | 0 | 5.2 | 2.3 | 10.8 | 0.8 | 0.4
CC(=O)OC[C@H]1O[C@@H]([S-])[C@H](OC(C)=O)[C@@H](OC(C)=O)[C@@H]1OC(C)=O.CCP(CC)CC.[Au+] [Auranofin] | 2.9 | 0 | 13.3 | 4.1 | 5 | 3.4 | 1.7 | 7.8 | 3.5 | 13.3 | 9.3 | 1.3
CNC(=O)c1ccccc1Sc1ccc2c(/C=C/c3ccccn3)n[nH]c2c1 [Axitinib] | 0.4 | 0 | 1.9 | 0 | 0 | 2 | 0.2 | 0.8 | 0.1 | 6.2 | 5 | 0.8
Nc1ncn([C@@H]2O[C@H](CO)[C@@H](O)[C@H]2O)c(=O)n1 [Azacitidine] | 0.9 | 0.7 | 0 | 4.4 | 1.1 | 3.4 | 1.6 | 3.5 | 3.8 | 0 | 1.7 | 2.2
Cc1cc(-c2nc(-c3ccc(OC(F)(F)F)cc3)no2)nn1Cc1ccnc(N2CCN(C3CC3)CC2)c1 [BAY 87-2243] | 2.7 | 0 | 0 | 0 | 2.7 | 28.8 | 4.7 | 1.6 | 23.3 | 0 | 8.4 | 4.8
CC[C@@H]1C(=O)N(C)c2cnc(Nc3ccc(C(=O)NC4CCN(C)CC4)cc3OC)nc2N1C1CCCC1 [BI 2536] | 11.4 | 2.1 | 12.5 | 11.9 | 3.9 | 23.5 | 3.9 | 19.7 | 15 | 8.7 | 18.3 | 17.7
COc1c(C)cnc(Cn2cnc3c(Cl)nc(N)nc32)c1C [BIIB021] | 9 | 9.5 | 15 | 20.6 | 7 | 19.7 | 9.9 | 3.3 | 18.5 | 20.5 | 16 | 17.3
CC1(C)C(C(=O)Nc2ccc(S(=O)(=O)c3ccc(NC(=O)C4C(C)(C)C4(C)C)cc3)cc2)C1(C)C [BRD7116] | 2.1 | 0 | 0 | 0.7 | 0.1 | 0 | 2.1 | 3.8 | 0 | 0 | 0.3 | 2.1
O=C(Nc1cccc(Nc2ncc(Br)c(NCCc3cnc[nH]3)n2)c1)N1CCCC1 [BX-912] | 1.4 | 1.3 | 4.5 | 2.5 | 0.4 | 4.7 | 3.7 | 3.5 | 7.4 | 8 | 10.3 | 2.4
Cc1ccc(NC(=O)c2ccc(CN3CC[C@H](N(C)C)C3)c(C(F)(F)F)c2)cc1Nc1nccc(-c2cncnc2)n1 [Bafetinib] | 0 | 0 | 0 | 0 | 0 | 0 | 0 | 0 | 3 | 0 | 0 | 0
CCS(=O)(=O)N1CC(CC#N)(n2cc(-c3ncnc4[nH]ccc34)cn2)C1 [Baricitinib] | 0 | 0 | 0 | 0 | 0 | 0 | 0 | 0 | 0 | 0 | 0 | 0
O=C(/C=C/c1cccc(S(=O)(=O)Nc2ccccc2)c1)NO [Belinostat] | 10.2 | 7.3 | 23.4 | 10 | 9.1 | 18.2 | 8.6 | 11.7 | 13.5 | 18.1 | 13.6 | 17.2
N#CC(c1ccnc(OCc2ccc(CN3CCOCC3)cc2)n1)c1nc2ccccc2s1 (configuration not stated) [Bentamapimod] | 2 | 3.8 | 0 | 1.4 | 1.3 | 2.3 | 1.8 | 1.1 | 5.5 | 0.3 | 1.5 | 4.5
C=C(c1ccc(C(=O)O)cc1)c1cc2c(cc1C)C(C)(C)CCC2(C)C [Bexarotene] | 0.1 | 0 | 0 | 1.3 | 0.1 | 0.1 | 0 | 0 | 1.3 | 0 | 1.5 | 0
CC(O)(CS(=O)(=O)c1ccc(F)cc1)C(=O)Nc1ccc(C#N)c(C(F)(F)F)c1 (configuration not stated) [Bicalutamide] | 0.2 | 0 | 8.4 | 0 | 0 | 0.3 | 0.5 | 0 | 0 | 0 | 0 | 0.7

From the supplement of paper PMC11616607
